Source: patent US4439365A, “Novel hydroxy substituted prostanoic acids, esters, congeners, intermediates and process” (American Cyanamid Company, priority 1979, dated 1984)

Tests used:
[1] = system: gastric acid secretion; assay: Gastric acid secretion inhibition, modified Shay rat procedure; assay type: in vivo, rats (male, CFE strain); details: pylorus-ligated rats, intraduodenal dose 100 mg./kg., 3 hours, 20% or more active, read-out: Percent Inhibition of gastric acid secretion
Procedure: The novel compounds of the present invention are also effective inhibitors of gastric acid secretion and of ulcer development in experimental animals, and thus are potentially valuable as agents for the control of gastric acid secretion and of gastric erosion and as anti-ulcer agents. Gastric acid secretion inhibitory action is usually measured by the "Shay rat" procedure^(1,2) with some modifications as follows.
The rats (male, CFE strain), were starved for 48 hours (water was given ad libitum) to permit evacuation of stomach contents. On the morning of the experiment, under ether anesthesia, the abdominal region was shaved and a midline incision (1-11/2") was made with a scapel. […]
The abdominal cavity was exposed by cutting with scissors and the esophagus close to the stomach was clamped off with a hemostat, the stomach was removed by cutting above the hemostat (the esophagus was cut) and between the two sutures. […] The supernatant was collected, volume measured and recorded, 2 drops of a phenolphthalein indicator (1% in 95% ethanol) were added and the solution was titrated with 0.02 N NaOH (or with 0.04 N NaOH when large volumes of stomach contents were encountered) to pH 8.4 (because of usual coloring of the stomach contents, phenolphthalein was only used to permit visual indication that the end point was near) and the amount of acid present was calculated. […]

[2] = system: ulcerogenic properties of indomethacin; assay: Protection against indomethacin-induced ulcers in rats; assay type: in vivo; details: indomethacin 20 mg./kg. s.c.
Procedure: The compounds of this invention provide protection against the ulcerogenic properties of indomethacin. This assay was carried out in the following manner.
Rats were starved for 48 hours (water was given ad libitum). Indomethacin (20 mg./kg. of body weight) was administered by the subutaneous route and one-half the dose of the test compound was administered by gavage at the same time. After three hours, the second half of the test compound was administered also by Gavage. Five hours after the administration of indomethacin the animals were decapitated and the stomachs removed. The stomachs were washed with distilled water, blotted on gauze, cut along the larger curvature, and the contents rinsed with distilled water. The stomachs were spread out, pinned on a cork and visualized under magnifying glass for ulcers. The criteria for scoring of ulcers was as previously reported. [Abdel-Galil et al. Brit. J. Pharmac. Chemotherapy 33:1-14 (1968)]. […]
Control animals treated with indomethacin but not test compound consistently give scores of about 3.0-3.5. Control animals treated with neither indomethacin nor test compound give scores of about 0.5-0.8. Compounds producing a score of 2.5 or lower are considered to be active.

[3] = total oral dose 25 mg./kg. in two halves by gavage, scale 0 normal stomach to 4 many ulcers, mainly large, 2.5 or lower active, control 3.2

## CCCCCC(O)/C=C/C1CCC(=O)C1CCCCC(C)(C)CC(=O)O (stereo not drawn) [9-oxo-15-hydroxy-3,3-dimethyl-13-trans-prostenoic acid]
[1]
  inhibition at 100 mg/kg: 51%

## CCCCC(CC)C(O)/C=C/C1CCC(=O)C1CCCCCCC(=O)O (stereo not drawn) [9-oxo-15-hydroxy-16-ethyl-13-trans-prostenoic acid]
[2]; [3]
  Score Treated (ulcer score): 1.7

## CCCCC[C@H](O)/C=C/[C@H]1CCC(=O)[C@@H]1CCCCSCC(=O)O (relative stereo) [9-oxo-3-thia-15-hydroxy-13-trans-prostenoic acid]
[2]; [3]
  Score Treated (ulcer score): 1.8

## CCCCCC(O)/C=C/[C@H]1CCC(=O)[C@]1(C)CCCCCCC(=O)O (relative stereo) [9-oxo-8β-methyl-15-hydroxy-13-trans-prostenoic acid]
[2]; total oral dose 12.5 mg./kg. in two halves by gavage, scale 0-4, 2.5 or lower active, control 3.0
  Score Treated (ulcer score): 2.0

## CCCCCC(O)/C=C/C1CCC(=O)C1CCCCCC(CC)C(=O)O (stereo not drawn) [9-oxo-15-hydroxy-2-ethyl-13-trans-prostenoic acid]
[2]; total oral dose 50 mg./kg. in two halves by gavage, scale 0-4, 2.5 or lower active, control 3.0
  Score Treated (ulcer score): 2.2

## CCCCCC(O)/C=C\C1CCC(=O)C1CCCCCCC(=O)O (stereo not drawn) [9-oxo-15-hydroxy-13-cis-prostenoic acid]
[2]; total oral dose 100 mg./kg. in two halves by gavage, scale 0-4, 2.5 or lower active, control 3.0
  Score Treated (ulcer score): 1.3

## CCCCC[C@@H](O)/C=C/[C@H]1CCC(=O)[C@@H]1CCCCSCC(=O)O (relative stereo) [9-oxo-3-thin-15-epi-hydroxy-13-trans-prostenoic acid]
[2]; [3]
  Score Treated (ulcer score): 2.3
